According to PubChem BioAssay AID1259407 (Chemical Carcinogenesis Research Information System (CCRIS), 2018):
Active and inactive are the calls of the source. The rule behind the calls is not given here.

Test system: CCRIS mutagenicity, Ames/micronucleus/aberration tests
Test: CCRIS mutagenicity studies
[1] = Test System: AMES SALMONELLA TYPHIMURIUM, Strain/Indicator: TA98, Metabolic Activation: NONE, Method: PREINCUBATION
[2] = Test System: AMES SALMONELLA TYPHIMURIUM, Strain/Indicator: TA98, Metabolic Activation: NONE, Method: STANDARD PLATE
[3] = Test System: AMES SALMONELLA TYPHIMURIUM, Strain/Indicator: TA100, Metabolic Activation: NONE, Method: PREINCUBATION
[4] = Test System: AMES SALMONELLA TYPHIMURIUM, Strain/Indicator: TA100, Metabolic Activation: NONE, Method: STANDARD PLATE
[5] = Test System: AMES SALMONELLA TYPHIMURIUM, Strain/Indicator: TA104, Metabolic Activation: NONE, Method: STANDARD PLATE
[6] = Test System: AMES SALMONELLA TYPHIMURIUM, Strain/Indicator: TA1535, Metabolic Activation: NONE, Method: PREINCUBATION
[7] = Test System: AMES SALMONELLA TYPHIMURIUM, Strain/Indicator: TA1537, Metabolic Activation: NONE, Method: PREINCUBATION

In the case of `O=P(O)(O)O`, the mutagenic call (End Point: IN VITRO CHROMOSOMAL ABERRATIONS, Test System: CHO CELLS, Metabolic Activation: NONE) is reported as “inactive; negative”, the mutagenic call (End Point: IN VITRO CHROMOSOMAL ABERRATIONS, Test System: CHO CELLS, Metabolic Activation: RAT, LIVER, S-9, AROCLOR 1254) is reported as “active; positive” and the mutagenic call (Test System: AMES SALMONELLA TYPHIMURIUM, Strain/Indicator: TA97, Metabolic Activation: HAMSTER, LIVER, S-9, AROCLOR 1254, Method: PREINCUBATION) is reported as “inactive; negative”. For the same compound, the mutagenic call (Test System: AMES SALMONELLA TYPHIMURIUM, Strain/Indicator: TA97, Metabolic Activation: NONE, Method: PREINCUBATION) was “inactive; negative”, the mutagenic call (Test System: AMES SALMONELLA TYPHIMURIUM, Strain/Indicator: TA97, Metabolic Activation: NONE, Method: STANDARD PLATE) was “inactive; negative” and the mutagenic call (Test System: AMES SALMONELLA TYPHIMURIUM, Strain/Indicator: TA97, Metabolic Activation: RAT, LIVER, S-9, AROCLOR 1254, Method: PREINCUBATION) was “inactive; negative”. For the same compound, the mutagenic call (Test System: AMES SALMONELLA TYPHIMURIUM, Strain/Indicator: TA97, Metabolic Activation: RAT, LIVER, S-9, PHENOBARBITAL, Method: STANDARD PLATE) was “inactive; negative”, the mutagenic call (Test System: AMES SALMONELLA TYPHIMURIUM, Strain/Indicator: TA97, Metabolic Activation: S-9, Method: PREINCUBATION) was “inactive; negative” and the mutagenic call (Test System: AMES SALMONELLA TYPHIMURIUM, Strain/Indicator: TA98, Metabolic Activation: HAMSTER, LIVER, S-9, AROCLOR 1254, Method: PREINCUBATION) was “inactive; negative”. The mutagenic call [1] was “inactive; negative”, the mutagenic call [2] was “inactive; negative” and the mutagenic call (Test System: AMES SALMONELLA TYPHIMURIUM, Strain/Indicator: TA98, Metabolic Activation: RAT, LIVER, S-9, AROCLOR 1254, Method: PREINCUBATION) was “inactive; negative”. The mutagenic call (Test System: AMES SALMONELLA TYPHIMURIUM, Strain/Indicator: TA98, Metabolic Activation: RAT, LIVER, S-9, PHENOBARBITAL, Method: STANDARD PLATE) was “inactive; negative”, the mutagenic call (Test System: AMES SALMONELLA TYPHIMURIUM, Strain/Indicator: TA100, Metabolic Activation: HAMSTER, LIVER, S-9, AROCLOR 1254, Method: PREINCUBATION) was “inactive; negative” and the mutagenic call [3] was “inactive; negative”. The mutagenic call [4] was “inactive; negative”, the mutagenic call (Test System: AMES SALMONELLA TYPHIMURIUM, Strain/Indicator: TA100, Metabolic Activation: RAT, LIVER, S-9, AROCLOR 1254, Method: PREINCUBATION) was “inactive; negative” and the mutagenic call (Test System: AMES SALMONELLA TYPHIMURIUM, Strain/Indicator: TA100, Metabolic Activation: RAT, LIVER, S-9, PHENOBARBITAL, Method: STANDARD PLATE) was “inactive; negative”. The mutagenic call (Test System: AMES SALMONELLA TYPHIMURIUM, Strain/Indicator: TA102, Metabolic Activation: NONE, Method: PREINCUBATION) was “inactive; negative”, the mutagenic call (Test System: AMES SALMONELLA TYPHIMURIUM, Strain/Indicator: TA102, Metabolic Activation: RAT, LIVER, S-9, AROCLOR 1254, Method: PREINCUBATION) was “inactive; negative” and the mutagenic call (Test System: AMES SALMONELLA TYPHIMURIUM, Strain/Indicator: TA102, Metabolic Activation: S-9, Method: PREINCUBATION) was “inactive; negative”. For the same compound, the mutagenic call [5] was “inactive; negative”, the mutagenic call (Test System: AMES SALMONELLA TYPHIMURIUM, Strain/Indicator: TA104, Metabolic Activation: RAT, LIVER, S-9, PHENOBARBITAL, Method: STANDARD PLATE) was “inactive; negative” and the mutagenic call [6] was “inactive; negative”. The mutagenic call (Test System: AMES SALMONELLA TYPHIMURIUM, Strain/Indicator: TA1537, Metabolic Activation: HAMSTER, LIVER, S-9, AROCLOR 1254, Method: PREINCUBATION) was “inactive; negative”, the mutagenic call [7] was “inactive; negative” and the mutagenic call (Test System: AMES SALMONELLA TYPHIMURIUM, Strain/Indicator: TA1537, Metabolic Activation: RAT, LIVER, S-9, AROCLOR 1254, Method: PREINCUBATION) was “inactive; negative”.

For `CC/C1=C/[C@@H](C)[C@](C)(OC(C)=O)C(=O)OC/C2=C/CN(C)CC[C@@H](OC1=O)C2=O`, the mutagenic call (Test System: UDS RAT HEPATOCYTES, Strain/Indicator: THY INCORP, Metabolic Activation: NONE, Method: AUTORADIOGRAPHY) was “active; positive”.

With `C/C=C(\Cl)C1=C(Cl)C(=O)[C@]23C[C@H]2C(C)(C)O[C@]3(O)C1=O` the mutagenic call (Test System: AMES SALMONELLA TYPHIMURIUM, Strain/Indicator: TA97, Metabolic Activation: NONE) was “inactive; negative”, the mutagenic call (Test System: AMES SALMONELLA TYPHIMURIUM, Strain/Indicator: TA98, Metabolic Activation: NONE) was “inactive; negative” and the mutagenic call (Test System: AMES SALMONELLA TYPHIMURIUM, Strain/Indicator: TA100, Metabolic Activation: NONE) was “active; positive”. For the same compound, the mutagenic call (Test System: AMES SALMONELLA TYPHIMURIUM, Strain/Indicator: TA102, Metabolic Activation: NONE) was “active; positive”.

`CC(C)N` was tested, and the mutagenic call (Test System: AMES SALMONELLA TYPHIMURIUM, Strain/Indicator: TA98, Metabolic Activation: HAMSTER, LIVER, S-9, AROCLOR 1254 (10%), Method: PREINCUBATION) was “inactive; negative”, the mutagenic call [1] was “inactive; negative” and the mutagenic call (Test System: AMES SALMONELLA TYPHIMURIUM, Strain/Indicator: TA98, Metabolic Activation: RAT, LIVER, S-9, AROCLOR 1254 (10%), Method: PREINCUBATION) was “inactive; negative”. For the same compound, the mutagenic call (Test System: AMES SALMONELLA TYPHIMURIUM, Strain/Indicator: TA100, Metabolic Activation: HAMSTER, LIVER, S-9, AROCLOR 1254 (10%), Method: PREINCUBATION) was “inactive; negative”, the mutagenic call [3] was “inactive; negative” and the mutagenic call (Test System: AMES SALMONELLA TYPHIMURIUM, Strain/Indicator: TA100, Metabolic Activation: RAT, LIVER, S-9, AROCLOR 1254 (10%), Method: PREINCUBATION) was “inactive; negative”. The mutagenic call (Test System: AMES SALMONELLA TYPHIMURIUM, Strain/Indicator: TA1535, Metabolic Activation: HAMSTER, LIVER, S-9, AROCLOR 1254 (10%), Method: PREINCUBATION) was “inactive; negative”, the mutagenic call [6] was “inactive; negative” and the mutagenic call (Test System: AMES SALMONELLA TYPHIMURIUM, Strain/Indicator: TA1535, Metabolic Activation: RAT, LIVER, S-9, AROCLOR 1254 (10%), Method: PREINCUBATION) was “inactive; negative”. For the same compound, the mutagenic call (Test System: AMES SALMONELLA TYPHIMURIUM, Strain/Indicator: TA1537, Metabolic Activation: HAMSTER, LIVER, S-9, AROCLOR 1254 (10%), Method: PREINCUBATION) was “inactive; negative”, the mutagenic call [7] was “inactive; negative” and the mutagenic call (Test System: AMES SALMONELLA TYPHIMURIUM, Strain/Indicator: TA1537, Metabolic Activation: RAT, LIVER, S-9, AROCLOR 1254 (10%), Method: PREINCUBATION) was “inactive; negative”. For the same compound, the mutagenic call (Test System: UDS RODENT HEPATOCYTES, Strain/Indicator: THY INCORP (NON-S-PHASE), Metabolic Activation: NONE, Method: LIQUID SCINTILLATION COUNTING) was “inactive; negative”.

For `COc1cc(Nc2c3ccccc3nc3ccccc23)ccc1NS(C)(=O)=O`, the mutagenic call (Test System: MOUSE LYMPHOMA, Strain/Indicator: L5178Y (TK+/TK-), Metabolic Activation: NONE, Method: SUSPENSION/PLATE) was “active; positive”.

`O=C(CBr)c1ccc(-c2ccccc2)cc1` was tested, and the mutagenic call [1] was “inactive; negative”, the mutagenic call (Test System: AMES SALMONELLA TYPHIMURIUM, Strain/Indicator: TA98, Metabolic Activation: RAT, LIVER, S-9, PCB, Method: PREINCUBATION) was “inactive; negative” and the mutagenic call (Test System: AMES SALMONELLA TYPHIMURIUM, Strain/Indicator: TA100, Metabolic Activation: RAT, LIVER, S-9, PCB, Method: PREINCUBATION) was “inactive; negative”. For the same compound, the mutagenic call (Test System: E. COLI, Strain/Indicator: WP2 UVRA, Metabolic Activation: NONE, Method: PREINCUBATION) was “inactive; negative”.

For `Nc1ccc2c3c(cccc13)C(=O)c1ccccc1-2`, the mutagenic call (End Point: In vivo micronucleus, Test System: lacZ mutant frequency in liver, lung, and bone marrow cells, Species: Mouse, Strain/Sex: Big Blue (BALB/c x DBA2)/Male, Route: Oral) was “active; positive in liver and bone marrow”.

For `Cc1occc(=O)c1[O-].Cc1occc(=O)c1[O-].Cc1occc(=O)c1[O-].[Al+3]`, the mutagenic call (Test System: AMES SALMONELLA TYPHIMURIUM, Strain/Indicator: TA92, Metabolic Activation: NONE, Method: STANDARD PLATE) was “inactive; negative”, the mutagenic call [2] was “inactive; negative” and the mutagenic call [4] was “inactive; negative”. For the same compound, the mutagenic call [5] was “inactive; negative”.
